These results are taken from publication PMC10698858 (Journal of chemical information and modeling, 2023).

A word on the pKi: it is −log10 of the Ki, conventionally taken in molar units. Read a high pKi as a low Ki.

The target of data set [1] is blaCTX-M15 (Escherichia coli O25b:H4, UniProt A0A5R8T042). The data set is described as follows: Beta-lactamase inhibition assay. In kind it is biochemical, Salmonella typhi. Conditions: for BL inhibitory activity: nitrocefin, 490 nm.
Data set [2] concerns Artemia salina. Description: Brine shrimp lethality. In kind it is in vivo. Conditions: for % mortality / dead / live: 10 nauplii, 24 hrs.

pKi: −log10 of the molar value.

Sequence of blaCTX-M15 (A0A5R8T042 29-291): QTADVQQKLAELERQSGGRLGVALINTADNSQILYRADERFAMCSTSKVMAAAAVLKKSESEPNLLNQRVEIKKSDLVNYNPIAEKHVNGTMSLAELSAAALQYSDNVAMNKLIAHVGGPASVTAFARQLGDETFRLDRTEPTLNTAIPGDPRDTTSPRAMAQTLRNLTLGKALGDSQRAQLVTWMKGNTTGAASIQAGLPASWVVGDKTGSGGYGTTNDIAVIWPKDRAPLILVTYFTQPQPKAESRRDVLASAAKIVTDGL

For the compound `O=C(O)[C@H]1/C(=C/CO)O[C@@H]2CC(=O)N21` [abcam Clavulanic acid, Clavulanic acid], the pKi in data set [1] is 4.41. The BL inhibitory activity in data set [1] (concentration 0.03 ug/ml) is on record as 0.9345; in data set [1] (concentration 0.09 ug/ml), 0.8498; in data set [1] (concentration 1 ug/ml) it was 0.753; in data set [1] (concentration 5 ug/ml), 0.623; in data set [1] (concentration 10 ug/ml), 0.53; in data set [1] (concentration 50 ug/ml) it was 0.239. Moreover, the BL inhibitory activity in data set [1] (concentration 100 ug/ml) came to 0.09; in data set [1] (concentration 150 ug/ml), 0.02; in data set [1] (concentration 200 ug/ml), 0.015.

As for `COc1cccc2c1C(=O)c1c(O)c3c(c(O)c1C2=O)C[C@@](O)(C(=O)CO)C[C@@H]3O[C@H]1C[C@H](N)[C@H](O)[C@H](C)O1` [Doxorubicin], the “% mortality” value in data set [2] (25 μg/ml) is 10%; in data set [2] (50 μg/ml) it was 20%; in data set [2] (75 μg/ml), 20%; in data set [2] (100 μg/ml), 30%. Besides, the dead in data set [2] (25 μg/ml) is reported as 1; in data set [2] (50 μg/ml), 2; in data set [2] (75 μg/ml), 2; in data set [2] (100 μg/ml) it was 3. Also, the live in data set [2] (25 μg/ml) is on record as 9; in data set [2] (50 μg/ml), 8; in data set [2] (75 μg/ml), 8; in data set [2] (100 μg/ml) it was 7. Also, the LD50 in data set [2] (brine shrimp, tested 25-100 μg/ml) was found to be 187 µg/mL.
